This note sets out measurements from patent US20190151266A1, “PHARMACEUTICAL COMPOSITION FOR TREATING OR PREVENTING BURN INJURIES” (priority 2016, published 2019).

For one assay, the system named is f11 neuron cell lines. Briefly: Inhibitory efficacy of fibroblast cell proliferation. The format is cell-based. The following applies: f11 neuron cell lines treated for 72 hours; compared to control groups; FIG. 10. The procedure:
After f11 neuron cell lines were treated with the compound of Formula 1 for 72 hours, the extents of cell differentiation were first compared/evaluated (see FIG. 10). […] Since fibroblast cell proliferation accompanies excessive collagen synthesis to make up for the dermis damaged by skin injury, scars can be left even after the damage recovery. Therefore, scar prevent or treating efficacy can be exerted by inhibiting the fibroblast proliferation.

Another assay relates to TRPV ion channels. Nature of the assay: TRPV ion channel activity: 2-APB-induced intracellular calcium change in nociceptive sensory cells (Fluo-4-AM). The format is cell-based, white rats. The procedure: After fl 1 nociceptive sensory cell lines in white rats incubated with the compound of Formula 1 for 24 hours were pretreated, TRPV ion channel activities were measured. The fl 1 cell lines were treated with 2-APB (2-aminoethoxydiphenyl borate) as a pre-activator for TRPV ion channels, and intracellular calcium changes, which are triggered in response to the 2-APB treatment, were evaluated using a Fluo-4-AM fluorescent dye on a real time basis.
Background: A change in cytosolic calcium serves as a functional read-out for many receptors and channels.

`CC(C)c1ccc2c(c1)C=C[C@H]1[C@](C)(C(=O)O)CCC[C@]21C` [Formula 1, abieta-6,8,11,13-tetraaen-18-oic acid]: the “fibroblast cell proliferation and differentiation inhibitory efficacy” value in the assay on f11 neuron cell lines was “improved fibroblast cell proliferation and differentiation inhibitory efficacy”. Besides, the “increase in the intracellular calcium level induced by 2-APB” value in the assay with TRPV ion channels (fl 1 cell lines pre-treated with the compound for 24 hours, FIG. 9) is on record as “strongly inhibited”.
Consider `NCCOB(c1ccccc1)c1ccccc1` [Formula 2-APB, 2-aminoethoxydiphenyl borate, reference compound], for which the “intracellular calcium level after treatment with TRPV pre-activator” value with TRPV ion channels (fl 1 cell lines, transient within 20 seconds, reverted to base level in about 5 minutes) is listed as “sharp increase in the intracellular calcium level”.
